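48-hour exposure; five concentrations; linearly interpolated endpoints. TGI marks complete inhibition of growth.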
Legend:
Experiment in all cases: NCI tumour cell line growth inhibition, 48 h
HOP-92 NSCLC = system: HOP-92 NSCLC
UACC-257 melanoma = system: UACC-257 melanoma
UO-31 renal = system: UO-31 renal
786-0 renal = system: 786-0 renal
LXFL 529 NSCLC = system: LXFL 529 NSCLC
HCT-116 colon = system: HCT-116 colon
NCI-H460 lung = system: NCI-H460 lung
HOP-18 NSCLC = system: HOP-18 NSCLC
M19-MEL melanoma = system: M19-MEL melanoma
LOX IMVI melanoma = system: LOX IMVI melanoma
CCRF-CEM leukemia = system: CCRF-CEM leukemia
SK-MEL-2 melanoma = system: SK-MEL-2 melanoma
SF-268 CNS = system: SF-268 CNS
NCI-H226 lung = system: NCI-H226 lung
HCC-2998 colon = system: HCC-2998 colon
HL-60(TB) leukemia = system: HL-60(TB) leukemia
SF-295 CNS = system: SF-295 CNS
RXF 393 renal = system: RXF 393 renal
MOLT-4 leukemia = system: MOLT-4 leukemia
SNB-78 CNS = system: SNB-78 CNS
IGROV1 ovarian = system: IGROV1 ovarian
OVCAR-8 ovarian = system: OVCAR-8 ovarian
HOP-62 NSCLC = system: HOP-62 NSCLC
A549 NSCLC = system: A549 NSCLC
UACC-62 melanoma = system: UACC-62 melanoma
SK-MEL-5 melanoma = system: SK-MEL-5 melanoma
SNB-75 CNS = system: SNB-75 CNS
NCI-H23 lung = system: NCI-H23 lung
M14 melanoma = system: M14 melanoma
DMS 114 small cell lung = system: DMS 114 small cell lung
XF 498 CNS = system: XF 498 CNS
MALME-3M melanoma = system: MALME-3M melanoma
KM20L2 colon = system: KM20L2 colon
DLD-1 colon = system: DLD-1 colon
SF-539 CNS = system: SF-539 CNS
SK-MEL-28 melanoma = system: SK-MEL-28 melanoma
HCT-15 colon = system: HCT-15 colon
CAKI-1 renal = system: CAKI-1 renal
KM12 colon = system: KM12 colon
COLO 205 colon = system: COLO 205 colon
HT29 colon = system: HT29 colon
U251 CNS = system: U251 CNS
EKVX NSCLC = system: EKVX NSCLC
SW-620 colon = system: SW-620 colon
SNB-19 CNS = system: SNB-19 CNS
NCI-H522 lung = system: NCI-H522 lung
DMS 273 small cell lung = system: DMS 273 small cell lung
SR leukemia = system: SR leukemia
RPMI-8226 leukemia = system: RPMI-8226 leukemia
ACHN renal = system: ACHN renal
A498 renal = system: A498 renal
OVCAR-3 ovarian = system: OVCAR-3 ovarian
K-562 leukemia = system: K-562 leukemia
SK-OV-3 ovarian = system: SK-OV-3 ovarian
RXF-631 renal = system: RXF-631 renal
OVCAR-5 ovarian = system: OVCAR-5 ovarian
TK-10 renal = system: TK-10 renal
SN12C renal = system: SN12C renal
P388 leukemia = system: P388 leukemia
NCI/ADR-RES ovarian = system: NCI/ADR-RES ovarian
P388/ADR leukemia = system: P388/ADR leukemia
OVCAR-4 ovarian = system: OVCAR-4 ovarian
SN12K1 renal = system: SN12K1 renal

**Q.** For `COc1ccc(-c2[nH]c3ccccc3c2CCNS(=O)(=O)c2ccc(C)cc2)cc1`, which TGI (HOP-92 NSCLC) is on record?
**A.** > 10000 nM

**Q.** And the TGI (UACC-257 melanoma)?
**A.** > 10000 nM

**Q.** And the TGI (UO-31 renal)?
**A.** > 10000 nM

**Q.** What about the TGI (786-0 renal) of the same compound?
**A.** > 10000 nM

**Q.** And the TGI (LXFL 529 NSCLC)?
**A.** > 10000 nM

**Q.** What about the TGI (HCT-116 colon) of the same compound?
**A.** > 10000 nM

**Q.** What about the TGI (NCI-H460 lung) of the same compound?
**A.** > 10000 nM

**Q.** And the TGI (HOP-18 NSCLC)?
**A.** > 10000 nM

**Q.** What about the TGI (M19-MEL melanoma) of the same compound?
**A.** > 10000 nM

**Q.** What about the TGI (LOX IMVI melanoma) of the same compound?
**A.** > 10000 nM

**Q.** What about the TGI (CCRF-CEM leukemia) of the same compound?
**A.** > 10000 nM

**Q.** And the TGI (SK-MEL-2 melanoma)?
**A.** > 10000 nM

**Q.** And the TGI (SF-268 CNS)?
**A.** > 10000 nM

**Q.** And the TGI (NCI-H226 lung)?
**A.** > 10000 nM

**Q.** What about the TGI (HCC-2998 colon) of the same compound?
**A.** > 10000 nM

**Q.** What about the TGI (HL-60(TB) leukemia) of the same compound?
**A.** > 10000 nM

**Q.** What about the TGI (SF-295 CNS) of the same compound?
**A.** > 10000 nM

**Q.** And the TGI (RXF 393 renal)?
**A.** > 10000 nM

**Q.** What about the TGI (MOLT-4 leukemia) of the same compound?
**A.** > 10000 nM

**Q.** What about the TGI (SNB-78 CNS) of the same compound?
**A.** > 10000 nM

**Q.** And the TGI (IGROV1 ovarian)?
**A.** > 10000 nM

**Q.** What about the TGI (OVCAR-8 ovarian) of the same compound?
**A.** > 10000 nM

**Q.** What about the TGI (HOP-62 NSCLC) of the same compound?
**A.** > 10000 nM

**Q.** What about the TGI (A549 NSCLC) of the same compound?
**A.** > 10000 nM

**Q.** And the TGI (UACC-62 melanoma)?
**A.** > 10000 nM

**Q.** What about the TGI (SK-MEL-5 melanoma) of the same compound?
**A.** > 10000 nM

**Q.** What about the TGI (SNB-75 CNS) of the same compound?
**A.** > 10000 nM

**Q.** What about the TGI (NCI-H23 lung) of the same compound?
**A.** > 10000 nM

**Q.** What about the TGI (M14 melanoma) of the same compound?
**A.** > 10000 nM

**Q.** What about the TGI (DMS 114 small cell lung) of the same compound?
**A.** > 10000 nM

**Q.** And the TGI (XF 498 CNS)?
**A.** > 10000 nM

**Q.** What about the TGI (MALME-3M melanoma) of the same compound?
**A.** > 10000 nM

**Q.** What about the TGI (KM20L2 colon) of the same compound?
**A.** > 10000 nM

**Q.** And the TGI (DLD-1 colon)?
**A.** > 10000 nM

**Q.** What about the TGI (SF-539 CNS) of the same compound?
**A.** > 10000 nM

**Q.** And the TGI (SK-MEL-28 melanoma)?
**A.** > 10000 nM

**Q.** What about the TGI (HCT-15 colon) of the same compound?
**A.** > 10000 nM

**Q.** What about the TGI (CAKI-1 renal) of the same compound?
**A.** > 10000 nM

**Q.** What about the TGI (KM12 colon) of the same compound?
**A.** > 10000 nM

**Q.** What about the TGI (COLO 205 colon) of the same compound?
**A.** 4030 nM

**Q.** And the TGI (HT29 colon)?
**A.** > 10000 nM

**Q.** And the TGI (U251 CNS)?
**A.** > 10000 nM

**Q.** And the TGI (EKVX NSCLC)?
**A.** > 10000 nM

**Q.** What about the TGI (SW-620 colon) of the same compound?
**A.** > 10000 nM

**Q.** What about the TGI (SNB-19 CNS) of the same compound?
**A.** > 10000 nM

**Q.** What about the TGI (NCI-H522 lung) of the same compound?
**A.** > 10000 nM

**Q.** What about the TGI (DMS 273 small cell lung) of the same compound?
**A.** > 10000 nM

**Q.** What about the TGI (SR leukemia) of the same compound?
**A.** > 10000 nM

**Q.** And the TGI (RPMI-8226 leukemia)?
**A.** > 10000 nM

**Q.** What about the TGI (ACHN renal) of the same compound?
**A.** > 10000 nM

**Q.** What about the TGI (A498 renal) of the same compound?
**A.** > 10000 nM

**Q.** What about the TGI (OVCAR-3 ovarian) of the same compound?
**A.** > 10000 nM

**Q.** And the TGI (K-562 leukemia)?
**A.** > 10000 nM

**Q.** What about the TGI (SK-OV-3 ovarian) of the same compound?
**A.** > 10000 nM

**Q.** And the TGI (RXF-631 renal)?
**A.** > 10000 nM

**Q.** And the TGI (OVCAR-5 ovarian)?
**A.** > 10000 nM

**Q.** And the TGI (TK-10 renal)?
**A.** > 10000 nM

**Q.** What about the TGI (SN12C renal) of the same compound?
**A.** > 10000 nM

**Q.** `O=C1N[C@@H]2C(=C[C@H](O)[C@@H](O)[C@H]2O)c2cc3c(c(O)c21)OCO3` was tested. Which TGI (HOP-92 NSCLC) did it give?
**A.** 272 nM

**Q.** What about the TGI (UACC-257 melanoma) of the same compound?
**A.** 88 nM

**Q.** And the TGI (UO-31 renal)?
**A.** 95.5 nM

**Q.** And the TGI (HCT-116 colon)?
**A.** 56.9 nM

**Q.** What about the TGI (P388 leukemia) of the same compound?
**A.** 969 nM

**Q.** And the TGI (NCI-H460 lung)?
**A.** 119 nM

**Q.** And the TGI (HOP-18 NSCLC)?
**A.** 281 nM

**Q.** What about the TGI (M19-MEL melanoma) of the same compound?
**A.** 77.1 nM

**Q.** What about the TGI (LOX IMVI melanoma) of the same compound?
**A.** 65 nM

**Q.** And the TGI (CCRF-CEM leukemia)?
**A.** 510 nM

**Q.** And the TGI (SK-MEL-2 melanoma)?
**A.** 49.9 nM

**Q.** And the TGI (SF-268 CNS)?
**A.** 116 nM

**Q.** And the TGI (NCI-H226 lung)?
**A.** 87.6 nM

**Q.** What about the TGI (HCC-2998 colon) of the same compound?
**A.** 68.1 nM

**Q.** And the TGI (HL-60(TB) leukemia)?
**A.** 86.2 nM

**Q.** And the TGI (SF-295 CNS)?
**A.** 245 nM

**Q.** What about the TGI (MOLT-4 leukemia) of the same compound?
**A.** 296 nM

**Q.** What about the TGI (SNB-78 CNS) of the same compound?
**A.** 399 nM

**Q.** And the TGI (IGROV1 ovarian)?
**A.** 151 nM

**Q.** And the TGI (OVCAR-8 ovarian)?
**A.** 61.3 nM

**Q.** What about the TGI (HOP-62 NSCLC) of the same compound?
**A.** 53.8 nM

**Q.** And the TGI (A549 NSCLC)?
**A.** 306 nM

**Q.** What about the TGI (UACC-62 melanoma) of the same compound?
**A.** 58.7 nM

**Q.** What about the TGI (SK-MEL-5 melanoma) of the same compound?
**A.** 77.4 nM

**Q.** And the TGI (SNB-75 CNS)?
**A.** 81.3 nM

**Q.** What about the TGI (NCI-H23 lung) of the same compound?
**A.** 129 nM

**Q.** And the TGI (NCI/ADR-RES ovarian)?
**A.** 97.2 nM

**Q.** What about the TGI (XF 498 CNS) of the same compound?
**A.** 54.1 nM

**Q.** And the TGI (MALME-3M melanoma)?
**A.** 53.5 nM

**Q.** And the TGI (KM20L2 colon)?
**A.** 315 nM

**Q.** And the TGI (DLD-1 colon)?
**A.** 75.1 nM

**Q.** And the TGI (P388/ADR leukemia)?
**A.** 450 nM

**Q.** And the TGI (SF-539 CNS)?
**A.** 48.6 nM

**Q.** And the TGI (SK-MEL-28 melanoma)?
**A.** 94.4 nM

**Q.** And the TGI (HCT-15 colon)?
**A.** 8160 nM

**Q.** And the TGI (OVCAR-4 ovarian)?
**A.** 537 nM

**Q.** And the TGI (CAKI-1 renal)?
**A.** 73.5 nM

**Q.** And the TGI (KM12 colon)?
**A.** 405 nM

**Q.** What about the TGI (HT29 colon) of the same compound?
**A.** 172 nM

**Q.** What about the TGI (U251 CNS) of the same compound?
**A.** 394 nM

**Q.** And the TGI (EKVX NSCLC)?
**A.** 74.3 nM

**Q.** And the TGI (SW-620 colon)?
**A.** 2670 nM

**Q.** And the TGI (SNB-19 CNS)?
**A.** 66.5 nM

**Q.** What about the TGI (DMS 273 small cell lung) of the same compound?
**A.** 145 nM

**Q.** And the TGI (RPMI-8226 leukemia)?
**A.** 85.8 nM

**Q.** What about the TGI (A498 renal) of the same compound?
**A.** 106 nM

**Q.** And the TGI (SN12K1 renal)?
**A.** 100 nM

**Q.** And the TGI (OVCAR-3 ovarian)?
**A.** 63.9 nM

**Q.** What about the TGI (K-562 leukemia) of the same compound?
**A.** 95.5 nM

**Q.** What about the TGI (SK-OV-3 ovarian) of the same compound?
**A.** 246 nM

**Q.** And the TGI (OVCAR-5 ovarian)?
**A.** 294 nM

**Q.** What about the TGI (SN12C renal) of the same compound?
**A.** 122 nM

From PubChem BioAssay (NCI)
